Laboratory results published in paper PMC9497102, “Thiosemicarbazone Derivatives Developed to Overcome COTI-2 Resistance” (Cancers, 2022).
Marks after values point to notes of the source that are not given here.

How the values were obtained:
SW480/Coti cells = assay: MTT viability assay with ABCB1/ABCC1 inhibitors verapamil and CSA; type: cell-based, human; settings: 1 µM CSA and 10 µM verapamil, 72 h
Description: For the cytotoxicity, cell viability, and proliferation studies, the 3-(4,5-dimethylthiazol-2-yl)-2,5-diphenyltetrazolium bromide (MTT) assay was utilized. Cells were seeded in 96-well plates at a density of 2 × 10^4 cells/well, with the exception of SW480/Tria, which was used at a density of 3 × 10^4 cells/well. After 24 h of recovery, cells were treated with the indicated concentration of drugs. For the drug combination experiments, verapamil and cyclosporine A (CSA) were used as […] modulators, and tetrathiomolybdate (TTM) was used as a copper chelator. The TSCs were dissolved in DMSO followed by subsequent dilutions in the medium in order to maintain a final DMSO concentration of <1%. After 72 h, the treatment solution was removed and replaced with 100 µL of MTT solution (EZ4U, Biomedica, Vienna, Austria), which was diluted 1:10 in the growth medium. A TECAN Infinite 200 Pro plate reader was used to measure the absorbance of the solution after 2–3 h incubation at 5% CO2 in an incubator at 37 °C. The anticancer activity was determined with GraphPad Prism software and indicated as IC50 values (half maximum inhibitory concentration).

SW480 cells = assay: Detection of paraptotic vesicles (phase contrast microscopy); type: cell-based, human; settings: 24 h
Description: SW480 and SW480/Coti cells were seeded at a density of 2 × 10^4 per well in 24-well plates and left to recover for 24 h. This was followed by drug treatment at the indicated concentration for 24 h. Images were captured with phase contrast using a Nikon eclipse Ti-e fluorescence microscope and a DS Fi1c camera. Cells containing vesicles were counted in ImageJ and plotted in GraphPad Prism as the percentage of all cells.

[1] = Parallel artificial membrane permeability assay (PAMPA); type: in vitro ADME; settings: pH 7.4, 25 °C, read-out: Peff
Description: The thermodynamic solubility of COTI-NMeCy, COTI-Nme2, COTI-NH2, and COTI-2 was measured for the saturated solutions in water at pH 7.4 (20 mM HEPES buffer) at 25.0 ± 0.1 °C. The concentrations of the compounds were determined by UV-vis spectrophotometry using stock solutions of the compounds with known concentrations dissolved in pure DMSO, and 50% and 1% (v/v) DMSO/buffered aqueous solution for the calibration. The parallel artificial membrane permeability assay (PAMPA) was applied for the ligands with a Corning Gentest pre-coated PAMPA Plate System. Peff values were calculated according to the equation reported by Yu et al..

GLC-4 cells = system: GLC-4 cells; parameters: method as in PMID 33190481; settings: 72 h, MTT; cited from earlier work
SW480/Tria cells = system: SW480/Tria cells; parameters: method as in PMID 33190481; settings: 72 h, MTT; cited from earlier work
[2] = parameters: method as in PMID 33190481; settings: after formation of mixed-ligand GSH adduct; cited from earlier work
[3] = Cyclic voltammetry of iron(III)–ligand (1:2) systems; type: physicochemical; settings: cL = 1 mM, pH 7.40, 25 °C, 90% (v/v) DMSO/H2O, 0.01 V/s scan rate
Description: Cyclic voltammograms for the Fe(III) and Cu(II) complexes were recorded in 90% (v/v) DMSO/water solution containing 1 mM ligand and 0.5 mM FeCl3 or 1 mM CuCl2 using a conventional three-electrode system under nitrogen atmosphere and a PC-Controlled Electrochemical Measurement System (EF 451). The ionic strength was 0.10 M, adjusted by TBAN. Samples were purged for 15 min with Ar before recording the cyclic voltammograms. Platinum electrodes were used as the working and auxiliary electrodes, and Ag/AgCl (3 M KCl) was applied as the reference electrode. The electrochemical potentials were converted into the normal hydrogen electrode (NHE) scale by adding 0.222 V. The instrument was calibrated with an aqueous solution of K3[Fe(CN)6] (E1/2 = +0.386 V vs. NHE). Redox potentials were obtained at different scan rates (5–25 mV/s) in the range of −0.8 to +0.1 V. The dependence of the peak current values of the square root of the scan rates is shown in Figure S5 for the iron and copper complexes of COTI-NMeCy.

[4] = system: GLC-4/adr cells (ABCC1-overexpressing); parameters: method as in PMID 33190481; settings: cited from earlier work

| Papp [1] | E’ vs. NHE, iron(III)–ligand (1:2) systems [3] | Structure (SMILES) | impact of verapamil and CSA on activity (SW480/Coti cells) | cells presenting paraptotic features (SW480 cells; 0.1 µM) | cells presenting paraptotic features (SW480 cells; 1 µM) | IC50 (GLC-4 cells) | IC50 (SW480/Tria cells) | redox reaction of the copper(II) complex with GSH [2] | IC50 ([4]; 72 h, MTT) | Relative Resistance GLC-4/adr ([4]; IC50 of GLC-4/adr divided by IC50 of parental GLC-4) |
| --- | --- | --- | --- | --- | --- | --- | --- | --- | --- | --- |
| 16 ± 0.1 ×10⁻⁶ cm/s |  | CN(C)C(=S)NN=C1CCCc2cccnc21 (mixture of isomers) [COTI-NMe2, 2-(6,7-Dihydroquinolin-8(5H)-ylidene)-N^4,N^4-dimethylhydrazine-1-carbothioamide] | no relevant impact | 100% | 100% |  |  |  |  |  |
|  | +0.11 V | S=C(N/N=C1\CCCc2cccnc21)N1CCN(c2ccccn2)CC1 [COTI-2, 4-(pyridine-2-yl)-N-([(8E)-5,6,7,8-tetrahydroquinolin-8-ylidene]amino)piperazine-1-carbothioamide] |  |  |  | 30 ± 10 nM | 410 ± 160 nM | spectra were almost unchanged within 6 h | 480 ± 150 nM | 17.3 * |
